Experimental data published in patent US11191820B2, “Method for inducing early T memory response with short peptides anti-tumor vaccine” (OSE IMMUNOTHERAPEUTICS, priority 2015, dated 2021).

How the values were obtained:
advanced NSCLC = conditions: cited from earlier work
central memory T cells [1] = assay: Central memory T cell cultured ELISPOT, phase 2 trial in advanced NSCLC; type: in vivo, human
Outline: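 Patient PBMC were pre-stimulated for 10 days with 10 μg/ml peptide plus rIL2 (10 U/ml, days 1, 4, 7), then replated at 5×10^4/well with irradiated autologous PBMC and 10 μg/ml peptide, and SFC were counted. A response was positive if >5 SFC above, and > mean+2 SD of, the irrelevant HBV epitope, and twofold the pre-vaccination response plus 2 SD.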

central memory T cells [2] = assay: Cultured IFN-γ ELISPOT after 10-day in vitro stimulation of PBMC, phase 1/2 colon cancer trial of OSE-2101; type: in vivo, human; parameters: key to net SFC of vaccine positive CTL responses: —, indicates SFC response did not meet criteria and vaccine response was negative
Outline: (§1)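 Patient PBMC (pre-treatment, Week 9, Week 18, after s.c. dosing every 3 weeks) were stimulated 10 days with 10 μg/ml of each epitope plus rIL-2 10 U/ml on days 1, 4 and 7. Cells were then tested 20 h with irradiated autologous PBMC and 10 μg/ml vaccine or wild-type peptide. Net SFC per 5×10^4 cells, irrelevant HBV peptide subtracted.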

central memory T cells [3] = assay: Cultured IFN-γ ELISPOT after 10-day in vitro stimulation of PBMC, phase 1/2 NSCLC trial of OSE-2101; type: in vivo, human; parameters: key to net SFC of vaccine positive CTL responses: —, indicates SFC response did not meet criteria and vaccine response was negative; conditions: for No. Positive Responses: 6 NSCLC patients
Outline: as §1

C#Cc1cccc(Nc2ncnc3cc(OCCOC)c(OCCOC)cc23)c1 [Erlotinib]
2.2 months: Progression-Free Survival (PFS) (advanced NSCLC; advanced NSCLC after at least first line failure (Shepherd 2005))

Nc1nc2[nH]cc(CCc3ccc(C(=O)N[C@@H](CCC(=O)O)C(=O)O)cc3)c2c(=O)[nH]1 [pemetrexed]
2.9 months: median PFS (advanced NSCLC; phase 3, second line NSCLC (Bareschino 2011))

SMPPPGTRV [p53.149M2 A]
0/7: patients with positive CTL/central memory T cell response / patients tested (central memory T cells [1]; phase 2, month 9)
0%: % of patients with positive CTL/central memory T cell response (central memory T cells [1]; phase 2, month 9) | % of patients with positive CTL/central memory T cell response (central memory T cells [1]; phase 2, month 12) | % of patients with positive CTL/central memory T cell response (central memory T cells [1]; phase 2, week 18) | % of patients with positive CTL/central memory T cell response (central memory T cells [1]; phase 2, week 30)
0: No. Positive Responses (central memory T cells [3]; Week 9) | No. Positive Responses (central memory T cells [3]; Week 18)
18.0 SFC per 50,000 cells: Mean SFC (central memory T cells [2]; 10 colon patients, Week 9) | net SFC of vaccine positive CTL responses (central memory T cells [2]; colon patient 608, Week 9)
0/6: patients with positive CTL/central memory T cell response / patients tested (central memory T cells [1]; phase 2, week 30)
—: net SFC of vaccine positive CTL responses (central memory T cells [2]; colon patient 551, Week 9) | net SFC of vaccine positive CTL responses (central memory T cells [2]; colon patient 551, Week 18) | net SFC of vaccine positive CTL responses (central memory T cells [2]; colon patient 601, Week 9) | net SFC of vaccine positive CTL responses (central memory T cells [2]; colon patient 601, Week 18) | net SFC of vaccine positive CTL responses (central memory T cells [2]; colon patient 602, Week 9) | net SFC of vaccine positive CTL responses (central memory T cells [2]; colon patient 602, Week 18) | net SFC of vaccine positive CTL responses (central memory T cells [2]; colon patient 603, Week 9) | net SFC of vaccine positive CTL responses (central memory T cells [2]; colon patient 603, Week 18) | net SFC of vaccine positive CTL responses (central memory T cells [2]; colon patient 604, Week 9) | net SFC of vaccine positive CTL responses (central memory T cells [2]; colon patient 604, Week 18) | net SFC of vaccine positive CTL responses (central memory T cells [2]; colon patient 605, Week 9) | net SFC of vaccine positive CTL responses (central memory T cells [2]; colon patient 605, Week 18) | net SFC of vaccine positive CTL responses (central memory T cells [2]; colon patient 606, Week 9) | net SFC of vaccine positive CTL responses (central memory T cells [2]; colon patient 606, Week 18) | net SFC of vaccine positive CTL responses (central memory T cells [2]; colon patient 607, Week 9) | net SFC of vaccine positive CTL responses (central memory T cells [2]; colon patient 607, Week 18) | net SFC of vaccine positive CTL responses (central memory T cells [2]; colon patient 608, Week 18) | net SFC of vaccine positive CTL responses (central memory T cells [2]; colon patient 609, Week 9) | net SFC of vaccine positive CTL responses (central memory T cells [2]; colon patient 609, Week 18) | net SFC of vaccine positive CTL responses (central memory T cells [3]; NSCLC patient 201, Week 9) | net SFC of vaccine positive CTL responses (central memory T cells [3]; NSCLC patient 201, Week 18) | net SFC of vaccine positive CTL responses (central memory T cells [3]; NSCLC patient 502, Week 9) | net SFC of vaccine positive CTL responses (central memory T cells [3]; NSCLC patient 502, Week 18) | net SFC of vaccine positive CTL responses (central memory T cells [3]; NSCLC patient 504, Week 9) | net SFC of vaccine positive CTL responses (central memory T cells [3]; NSCLC patient 504, Week 18) | net SFC of vaccine positive CTL responses (central memory T cells [3]; NSCLC patient 505, Week 9) | net SFC of vaccine positive CTL responses (central memory T cells [3]; NSCLC patient 505, Week 18) | net SFC of vaccine positive CTL responses (central memory T cells [3]; NSCLC patient 532, Week 9) | net SFC of vaccine positive CTL responses (central memory T cells [3]; NSCLC patient 532, Week 18) | net SFC of vaccine positive CTL responses (central memory T cells [3]; NSCLC patient 651, Week 9) | net SFC of vaccine positive CTL responses (central memory T cells [3]; NSCLC patient 651, Week 18)
1/11: patients with positive CTL/central memory T cell response / patients tested (central memory T cells [1]; phase 2, week 9)
0/11: patients with positive CTL/central memory T cell response / patients tested (central memory T cells [1]; phase 2, week 18)
9%: % of patients with positive CTL/central memory T cell response (central memory T cells [1]; phase 2, week 9)
0/4: patients with positive CTL/central memory T cell response / patients tested (central memory T cells [1]; phase 2, month 12)
